Results as given in PMC6895203, “Conformational pathway provides unique sensitivity to a synaptic mGluR” (Nature Communications, 2019).
Several values for one entry are separate records, joined by “and”; a condition that tells them apart may be missing. Identical values can stand only once. Entries after “also recorded” stand apart in the source; their conditions may differ.

Legend:
[1] = target: T1, CLIP-mGluR2/SNAP-mGluR7(K319C) heterodimer (Rattus norvegicus, UniProt P31421+P35400, K319C); assay: smFRET on CLIP-mGluR2/SNAP-mGluR7(K319C) heterodimers with D-MAG-0 on mGluR7; type: biochemical; conditions: trans D-MAG-0 only on the mGluR7 subunit
T1 construct: Flag (N); HA (N); made in house; host or cells: HEK293T
Source text: (§1) Illumination was applied to the entire field of view using either a Polychrome V monochromator (TILL Photonics) through a 20× objective, or a Lambda DG4 high-speed wavelength switcher (Sutter Instruments) with 380 nm and 500 nm filters through a 40× objective. pClamp software was used for both data acquisition and control of illumination.
(§2) (100 ms time resolution).

[2] = target: T2, SNAP-mGluR7(K319C) homodimer (Rattus norvegicus, UniProt P35400, K319C); assay: smFRET on SNAP-mGluR7(K319C) homodimers conjugated to D-MAG-0; type: biochemical
T2 construct: HA (N); made in house; host or cells: HEK293T
Description: as §1, with “smFRET was performed on purified SNAP-mGluR7(K319C) homodimers that were labeled with donor and acceptor dyes on the SNAP and D-MAG-0 on K319C in the D-MAG-0 activated state. […] Illumination” for “Illumination”
as §2

[3] = target: CLIP-mGluR2/SNAP-mGluR7 heterodimer (mGluR2/7) (Rattus norvegicus, UniProt P31421+P35400); assay: smFRET on isolated CLIP-mGluR2/SNAP-mGluR7 heterodimers; conditions: for effect on smFRET distribution: 0 glutamate, combination of mGluR2 NAM (11 µM Ro 64-5229 or 1.2 µM MNI-137) with mGluR7 NAM ([…] ADX 71743)
SNAP-mGluR2(F756D) = target: T3, SNAP-mGluR2(F756D) (Rattus norvegicus, UniProt P31421, F756D); assay: Whole-cell patch clamp of GIRK1 current, SNAP-mGluR2(F756D) expressed alone; type: cell-based; conditions: BGAG12 labeled, 380 nm
T3 construct: HA (N); expressed in transfected cells; host or cells: HEK293 / HEK293T
Source text: (§3) We explored this further by examining trans-activation, whereby binding of ligand to one subunit activates G-protein interaction in the partner subunit[46],[47]. To specifically activate only the mGluR2 subunit of the mGluR2/7 heterodimer, we selectively attached a photoswitched tethered ligand to mGluR2.
as §1

[4] = target: SNAP-mGluR2/SNAP-mGluR2 homodimer (mGluR2/2) (Rattus norvegicus, UniProt P31421); assay: smFRET on isolated immune-purified SNAP-mGluR2/2 dimers; conditions: 10 nM DCG-IV
Source text: (§4) Receptors expressed in HEK293T cells were labeled with a mixture of SNAP-reactive donor and acceptor fluorophores, detergent solubilized, immune-purified and tethered by biotinylated secondary antibodies at low density to coverslips that were passivated with a lawn of polyethylene glycol[13]. We used single-molecule FRET (smFRET) in order to measure the absolute FRET levels and dynamic changes associated with ligand-induced conformational changes in the LBDs. We imaged the donor and acceptor dyes using total internal reflection fluorescence (TIRF) microscopy[13],[31]

[5] = target: T4, SNAP-mGluR2(F756D)/mGluR7 heterodimer (Rattus norvegicus, UniProt P31421+P35400, F756D); assay: Whole-cell patch clamp of GIRK1 current, trans-activation in SNAP-mGluR2(F756D)/mGluR7; type: cell-based
T4 construct: HA (N); expressed in transfected cells; host or cells: HEK293 / HEK293T
Source text: as §3, with “mGluR2. […] SNAP-mGluR2(F756D) was co-expressed with wild-type mGluR7 along with the GIRK1 channel.” for “mGluR2.”
as §1

[6] = target: SNAP-mGluR7/SNAP-mGluR7 homodimer (mGluR7/7) (Rattus norvegicus, UniProt P35400); assay: smFRET on isolated immune-purified SNAP-mGluR7/7 dimers
SNAP-mGluR7/SNAP-mGluR7 homodimer (mGluR7/7), sequence (P35400 35-915): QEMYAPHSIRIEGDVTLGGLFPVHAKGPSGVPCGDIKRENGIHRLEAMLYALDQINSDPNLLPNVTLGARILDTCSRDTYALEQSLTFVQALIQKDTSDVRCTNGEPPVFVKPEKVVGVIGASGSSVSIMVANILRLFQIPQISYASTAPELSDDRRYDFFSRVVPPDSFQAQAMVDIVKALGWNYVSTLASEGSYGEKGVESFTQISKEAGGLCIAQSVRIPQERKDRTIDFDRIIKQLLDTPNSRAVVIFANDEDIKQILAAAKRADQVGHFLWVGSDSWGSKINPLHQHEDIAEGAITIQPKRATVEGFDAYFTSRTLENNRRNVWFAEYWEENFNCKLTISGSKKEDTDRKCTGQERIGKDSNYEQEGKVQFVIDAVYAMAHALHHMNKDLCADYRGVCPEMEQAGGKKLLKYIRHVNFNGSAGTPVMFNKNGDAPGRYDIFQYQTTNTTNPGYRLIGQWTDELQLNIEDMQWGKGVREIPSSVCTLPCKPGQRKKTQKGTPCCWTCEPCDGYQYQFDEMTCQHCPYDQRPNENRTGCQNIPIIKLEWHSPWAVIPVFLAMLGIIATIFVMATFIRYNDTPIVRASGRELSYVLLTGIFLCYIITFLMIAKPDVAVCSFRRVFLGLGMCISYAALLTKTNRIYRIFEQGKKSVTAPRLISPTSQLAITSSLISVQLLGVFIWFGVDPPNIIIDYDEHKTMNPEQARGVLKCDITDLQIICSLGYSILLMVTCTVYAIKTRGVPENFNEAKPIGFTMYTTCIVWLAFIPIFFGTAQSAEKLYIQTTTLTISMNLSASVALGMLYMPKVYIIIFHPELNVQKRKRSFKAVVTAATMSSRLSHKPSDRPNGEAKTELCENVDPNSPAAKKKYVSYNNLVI
Source text: as §4

CLIP-mGluR2/SNAP-mGluR7 heterodimer (mGluR2/7), sequence (P31421 19-872): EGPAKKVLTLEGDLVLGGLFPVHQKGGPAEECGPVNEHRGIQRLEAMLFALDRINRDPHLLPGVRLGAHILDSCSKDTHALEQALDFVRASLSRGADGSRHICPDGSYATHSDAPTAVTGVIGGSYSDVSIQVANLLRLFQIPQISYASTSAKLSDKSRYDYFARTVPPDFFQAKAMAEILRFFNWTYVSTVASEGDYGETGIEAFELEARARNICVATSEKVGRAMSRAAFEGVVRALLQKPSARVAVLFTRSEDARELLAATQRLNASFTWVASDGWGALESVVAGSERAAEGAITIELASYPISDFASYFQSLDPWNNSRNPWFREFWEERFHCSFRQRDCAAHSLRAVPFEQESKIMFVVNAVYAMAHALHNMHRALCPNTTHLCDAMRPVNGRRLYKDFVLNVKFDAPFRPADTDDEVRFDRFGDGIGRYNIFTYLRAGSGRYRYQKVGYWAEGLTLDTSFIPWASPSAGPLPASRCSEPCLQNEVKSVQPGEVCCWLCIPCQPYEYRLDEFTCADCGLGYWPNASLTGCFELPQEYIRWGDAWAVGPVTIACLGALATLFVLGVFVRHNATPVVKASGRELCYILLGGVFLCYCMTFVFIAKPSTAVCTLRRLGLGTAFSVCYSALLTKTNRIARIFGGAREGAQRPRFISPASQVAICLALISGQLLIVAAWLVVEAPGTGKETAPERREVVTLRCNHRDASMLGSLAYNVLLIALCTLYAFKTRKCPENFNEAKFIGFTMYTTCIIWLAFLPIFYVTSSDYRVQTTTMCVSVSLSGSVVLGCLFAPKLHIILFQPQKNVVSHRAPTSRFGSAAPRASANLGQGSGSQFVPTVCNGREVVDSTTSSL
CLIP-mGluR2/SNAP-mGluR7 heterodimer (mGluR2/7), sequence (P35400 35-915): as the sequence (P35400 35-915) above
T4 sequence (P31421 19-872 F756D): as the sequence (P31421 19-872) above, with F738D counted along it
T4 sequence (P35400 35-915): as the sequence (P35400 35-915) above
T2 sequence (P35400 35-915 K319C): as the sequence (P35400 35-915) above, with K285C counted along it
SNAP-mGluR2/SNAP-mGluR2 homodimer (mGluR2/2), sequence (P31421 19-872): as the sequence (P31421 19-872) above
T1 sequence (P31421 19-872): as above
T1 sequence (P35400 35-915 K319C): as the sequence (P35400 35-915) above, with K285C counted along it
T3 sequence (P31421 19-872 F756D): as the sequence (P31421 19-872) above, with F738D counted along it

Compound: NC(CC(CCC(=O)Nc1ccc(N=Nc2ccc(NC(=O)CN3C(=O)C=CC3=O)cc2)cc1)C(=O)O)C(=O)O (mixture of isomers) [D-MAG-0, maleimide-azobenzene-glutamate]
- time in the activated low-FRET state [1]: ~ 90%
- stabilization of activated conformation, fold more effective than saturating free glutamate ([2]; trans D-MAG-0): approximately 5 fold
- occupancy of the activated low FRET state ([2]; trans D-MAG-0 on both subunits): ~ 50%

Compound: CCc1nc2c(o1)CC(c1ccc(C)cc1C)CC2=O (centres unmarked) [ADX71743]
- effect on smFRET distribution [3]: narrowed the smFRET distribution and shifted it to the right

Compound: Nc1nc(OCc2ccc(CNC(=O)CCc3cn(CCOCCOCCOCCOCCOCCOCCOCCOCCOCCOCCOCCOCCC(=O)NCC(=O)Nc4ccc(/N=N/c5ccc(NC(=O)CCC[C@@H](C[C@H](N)C(=O)O)C(=O)O)cc5)cc4)nn3)cc2)c2nc[nH]c2n1 [BGAG12, benzylguanine azobenzene glutamate]
- photocurrent (SNAP-mGluR2(F756D)): no photocurrent

Compound: N[C@H](C(=O)O)C1[C@@H](C(=O)O)[C@@H]1C(=O)O (some centres unmarked) [DCG-IV]
- occupancy of the activated conformation [4]: ~ 5%
- activated conformation occupancy, fold greater than mGluR2/2 ([3]; 10 nM DCG-IV): ~ 5 fold
- occupancy of the activated conformation ([3]; 10 nM DCG-IV): ~ 25%
- Norm. (1 nM DCG-IV), Over 20% Photo ([5]; 1 nM DCG-IV, summary of cells Over 20% Photo): 0.04748
- Norm. (1 nM DCG-IV), Under 15% Photo ([5]; 1 nM DCG-IV, summary of cells Under 15% Photo): 0.01667
- Norm. (10 nM DCG-IV), Over 20% Photo ([5]; 10 nM DCG-IV, summary of cells Over 20% Photo): 0.2749
- Norm. (10 nM DCG-IV), Under 15% Photo ([5]; 10 nM DCG-IV, summary of cells Under 15% Photo): 0.22
- Norm. (100 nM DCG-IV), Over 20% Photo ([5]; 100 nM DCG-IV, summary of cells Over 20% Photo): 0.5816
- Norm. (100 nM DCG-IV), Under 15% Photo ([5]; 100 nM DCG-IV, summary of cells Under 15% Photo): 0.3011
- Norm. (1 uM DCG-IV) ([5]; 1 uM DCG-IV normalised to 1 mM Glu, single cells): 0.9403 and 0.9452 and 0.7554 and 0.9507
- Norm. (1 uM DCG-IV), Over 20% Photo ([5]; 1 uM DCG-IV, summary of cells Over 20% Photo): 0.9454
- Norm. (1 uM DCG-IV), Under 15% Photo ([5]; 1 uM DCG-IV, summary of cells Under 15% Photo): 0.7554
- Norm. (10 uM DCG-IV) ([5]; 10 uM DCG-IV normalised to 1 mM Glu, single cells): 1
- Current, 10 uM DCG-IV ([5]; 10 uM DCG-IV, single cells): -498.53
- Norm. (10 uM DCG-IV), Over 20% Photo ([5]; 10 uM DCG-IV, summary of cells Over 20% Photo): 1
- DCG-IV GIRK concentration-response relation compared to mGluR2/2 ([5]; patch clamp, foot of the relation): left-shifted; also recorded: more sensitive

Compound: N[C@@H](CCP(=O)(O)C(O)c1ccc(OCC(=O)O)cc1)C(=O)O (some centres unmarked) [LSP4-2022]
- shift of smFRET distribution ([3]; 1 µM LSP4-2022): slightly more than half-way toward the activated low FRET state
- activation ([3]; 1 mM LSP4-2022): almost complete
- apparent affinity of mGluR7 subunit, fold higher than when partnered with another mGluR7 ([3]; smFRET): approximately 1000 fold
- smFRET traces ([6]; 20 μM LSP4-2022): frequent transitions to the low FRET activated conformation
- normalized low FRET area (Supplemental Figure 2a), mGluR7 LSP4 ([6]; agonist 0.003 (M)): 1
- normalized low FRET area (Supplemental Figure 2a), mGluR7 LSP4 ([6]; agonist 1.00E-03 (M)): 0.8692
- normalized low FRET area (Supplemental Figure 2a), mGluR7 LSP4 ([6]; agonist 1.00E-06 (M)): 0.03798
- normalized low FRET area (Supplemental Figure 2a), mGluR7 LSP4 ([6]; agonist 1.00E-07 (M)): 0.02088
- normalized low FRET area (Supplemental Figure 2a), mGluR7 LSP4 ([6]; agonist 2.00E-05 (M)): 0.3163
- receptor occupancy at 1000 µM ([6]; read-out: occupancy of the activated conformation): > 50%
- receptor occupancy at 3000 µM ([6]; read-out: occupancy of the low FRET conformation): ~65%
- efficacy, fold greater than that of glutamate ([6]; smFRET): at least 6 fold

Compound: Clc1cccc(Cl)c1/C(=C/n1cncn1)OC1CCCCCC1 [Ro 64-5229]
- effect on smFRET distribution [3]: narrowed the smFRET distribution and shifted it to the right

Compound: MNI-137
- effect on smFRET distribution [3]: narrowed the smFRET distribution and shifted it to the right
